Laboratory results from article PMC10470178, “Long-acting lenacapavir protects macaques against intravenous challenge with simian-tropic HIV” (eBioMedicine, 2023).
Like-named read-outs stand apart in the source and are kept apart here.

Columns and labels:
[1] = type: in vivo, pigtail macaques (Macaca nemestrina)
Protocol: (§1) Sixteen male, purpose-bred pigtail macaques (Macaca nemestrina; ages 4.6–8.5 years at the time of study initiation) were housed at NIH-Bethesda (Supplementary Table S1). All study animals received enrofloxacin (10 mg/kg, administered orally, once per day for 10 days), paromomycin (25 mg/kg, administered orally, twice daily for 7–10 days), and fenbendazole (50 mg/kg administered orally, once per day for 5 days) two weeks to 43 months prior to study initiation. Lenacapavir or drug vehicle (sterile, preservative-free 57.5% w/v polyethylene glycol 300 in water) doses were administered to sedated animals via SC injection into the scapular region such that no more than 2 ml of solution was injected into a single SC site. Animals in the LEN pharmacokinetic evaluation study (N = 6) each received two doses of LEN, both at 15 mg/kg (N = 3) or at 50 mg/kg (N = 3), 6 weeks apart. Animals in the virus challenge experiment each received a single dose of LEN at 25 mg/kg (N = 3, LEN PrEP group) or drug vehicle (N = 4, vehicle control group) 30 days prior to stHIV-A19 challenge, or a cART regimen consisting of tenofovir disoproxil fumarate (TDF), emtricitabine (FTC), and dolutegravir (DTG) (N = 3, TDF/FTC/DTG group), coformulated and administered as previously described[29]^,[30] for 7 days beginning 3 days prior to stHIV-A19 challenge (Supplementary Figure S1). Hair was clipped and skin marked at LEN and vehicle injection sites to allow for subsequent visual and manual assessment and scoring of potential ISRs by non-blinded veterinary care staff. Complete blood counts (CBC) and serum chemistries were monitored prior to and at 2- to 4-week intervals after LEN administration for at least one year. Following the first dose of LEN in the PK study, one animal in the 50-mg/kg dosing group received 7 consecutive days of daily ketoprofen (2 mg/kg) administered intramuscularly for ISR analgesia at veterinary discretion. For the second dose of LEN in the PK study, all animals in the 50-mg/kg dosing group received 5–7 consecutive days of twice daily oral carprofen (2 mg/kg) analgesia administered prophylactically starting on the day of LEN dosing. In the IV challenge PrEP study, all LEN and vehicle control animals received 3–5 consecutive days of twice daily oral carprofen (2 mg/kg) analgesia administered prophylactically starting on the day of injection. For virus challenge, PrEP study animals each received 1 × 10^5 infectious units of stHIV-A19 injected intravenously. After LEN washout, LEN PrEP group animals received a single 50-mg/kg dose of rhesusized depleting anti-CD8α antibody (MT807R1, RRID: AB_2716320, NIH Nonhuman Primate Reagent Resource), administered SC to anesthetized animals.

[2] = test system: stHIV-A19; test: PrEP protection from high-dose intravenous stHIV-A19 challenge in pigtail macaques; type: in vivo, pigtail macaques (Macaca nemestrina)
Protocol: as §1
Simian-tropic HIV was isolated from clarified PTM plasma by centrifugation (21,000×g for 1 h), and the resultant pellet was extracted as described.[31] Pigtail macaque PBMCs were subjected to nucleic acid extraction essentially as previously described for tissues.[32] HIV gag DNA and RNA copies were assessed using a multiplexed qPCR assay, as previously described.[33] Plasma stHIV-A19 vRNA levels are reported as copies/ml of plasma. PBMC-associated stHIV-A19 vDNA levels are reported as copies/10^6 cell equivalents, based on 2 copies of the CCR5 gene per diploid cellular genome.[34]
Plasma specimens collected from all 10 virus challenge animals prior to and at 8 weeks after stHIV-A19 challenge were evaluated for the presence of antibodies specific for HIV-1 by Western blot analysis using the GS HIV-1 Western Blot kit (Bio-Rad, cat #32508) according to the manufacturer’s instructions.
Statistical analyses were performed using R v4.1.1 ((R Core Team, 2021). R: A language and environment for statistical computing. R Foundation for Statistical Computing, Vienna, Austria. URL https://www.R-project.org/). […]

[3] = all 3 LEN PrEP animals, 34 days of monitoring after anti-CD8α antibody at 419 days post-challenge

SMILES: CC(C)(C#Cc1ccc(-c2ccc(Cl)c3c(NS(C)(=O)=O)nn(CC(F)(F)F)c23)c([C@H](Cc2cc(F)cc(F)c2)NC(=O)Cn2nc(C(F)(F)F)c3c2C(F)(F)[C@@H]2C[C@H]32)n1)S(C)(=O)=O [LEN, Lenacapavir]
- ISR cumulative incidence: Erythema ([1]; 15 mg/kg SC, Dose 1): 3/3
- ISR cumulative incidence: Hyperkeratosis ([1]; 15 mg/kg SC, Dose 1): 2/3
- ISR cumulative incidence: Nodule ([1]; 15 mg/kg SC, Dose 1): 3/3
- ISR cumulative incidence: Ulceration ([1]; 15 mg/kg SC, Dose 1): 0/3
- ISR cumulative incidence: Erythema ([1]; 15 mg/kg SC, Dose 2): 0/3
- ISR cumulative incidence: Hyperkeratosis ([1]; 15 mg/kg SC, Dose 2): 0/3
- ISR cumulative incidence: Nodule ([1]; 15 mg/kg SC, Dose 2): 1/3
- ISR cumulative incidence: Ulceration ([1]; 15 mg/kg SC, Dose 2): 0/3
- ISR cumulative incidence: Erythema ([1]; 25 mg/kg SC, Dose 1): 0/3
- ISR cumulative incidence: Hyperkeratosis ([1]; 25 mg/kg SC, Dose 1): 2/3
- ISR cumulative incidence: Nodule ([1]; 25 mg/kg SC, Dose 1): 3/3
- ISR cumulative incidence: Ulceration ([1]; 25 mg/kg SC, Dose 1): 2/3
- ISR cumulative incidence: Erythema ([1]; 50 mg/kg SC, Dose 1): 0/3
- ISR cumulative incidence: Hyperkeratosis ([1]; 50 mg/kg SC, Dose 1): 0/3
- ISR cumulative incidence: Nodule ([1]; 50 mg/kg SC, Dose 1): 3/3
- ISR cumulative incidence: Ulceration ([1]; 50 mg/kg SC, Dose 1): 1/3
- ISR cumulative incidence: Erythema ([1]; 50 mg/kg SC, Dose 2): 0/3
- ISR cumulative incidence: Hyperkeratosis ([1]; 50 mg/kg SC, Dose 2): 2/3
- ISR cumulative incidence: Nodule ([1]; 50 mg/kg SC, Dose 2): 3/3
- ISR cumulative incidence: Ulceration ([1]; 50 mg/kg SC, Dose 2): 2/3
- complete blood counts (CBC) and blood serum chemistries ([1]; PTMs that received SC LEN injections): No abnormalities or significant changes
- injection site reactions (ISRs), severity ([1]; some animals following some SC LEN injections): Mild to moderate
- PBMC vDNA following CD8 depletion [2, 3]: 6.2–11.0 vDNA copies/10^6 PBMC
- plasma vRNA following CD8 depletion [2, 3]: < 2.8 vRNA copies/ml plasma
- cell-associated viral DNA (CA-vDNA) in PBMC after stHIV-A19 challenge ([2]; all animals of the group, any time point): vDNA was not detected at any time point
- plasma vRNA after stHIV-A19 challenge ([2]; assay threshold 2.8 vRNA copies/ml, LEN ∼370 days follow-up, TDF/FTC/DTG through 120 days post-challenge): no plasma vRNA detected at any time point
- infection rates compared with vehicle control group ([2]; each p < 0.03, Fisher's exact test): significantly lower than in the vehicle control group
- HIV-1 Western blot serology ([2]; plasma, 8 weeks after stHIV-A19 challenge, all animals): remained seronegative
- protection from infection after stHIV-A19 challenge ([2]; single IV challenge 1 × 10^5 i.u., LEN 25 mg/kg SC 30 days before (N = 3), 3-drug regimen daily SC for 7 days from 3 days before (N = 3)): protected PTMs from infection
